Data from a melting point compilation (Tetko et al.; mined from patent text by program, amines drawn as free bases though some values may be those of a salt).

Work on `COC(=O)CCCc1cc2cc(Cl)ccc2n1S(=O)(=O)c1ccc(OC)cc1` yielded a melting point of 97 to 98 °C.
Work on `CCc1nc(Cc2ccc([N+](=O)[O-])cc2)no1` yielded a melting point of 69 to 70 °C.
Work on `CCOC(=O)c1cc(Cc2cccc3ccccc23)sc1NCC(C)C` yielded a melting point of 57 to 59 °C.
`Cc1cc2c(s1)Nc1ccccc1N=C2N1CCN(C)[C@@H](CO)C1` gave a melting point of 118 to 124 °C.
In the case of `COc1ccnc2[nH]c(CO)cc12`, the melting point is reported as 210 to 212 °C.
In the case of `COc1cc(C)ccc1S(=O)(=O)NC(=O)C(c1ccc2c(c1)OCO2)c1cn(C)c2ccc(Br)cc12` (centres undefined), the melting point is reported as 145 to 150 °C.
`O=Cc1ccc(-c2cc(C(F)(F)F)n(Cc3ccccc3)n2)o1` showed a melting point of 76.5 to 77.5 °C.
In the case of `CC[C@H](C)[C@H](NC(=O)OCc1ccccn1)C(=O)NC(Cc1ccccc1)C(O)C(O)C(Cc1ccccc1)NC(=O)[C@@H](NC(=O)OCc1ccccn1)[C@@H](C)CC` (some centres undefined), the melting point is reported as 220 to 221 °C.
Molecule `CC(OCc1ccc2ccccc2c1)(C(=O)Cl)C(F)(F)F` (centres undefined) has a melting point of 39 to 43 °C.
In the case of `COCN1C(=O)OC(C)(C)c2cc(-c3cc(F)cc(C#N)c3)ccc21`, the melting point is reported as 169 to 171 °C.
`CC(=O)c1ccc(C(C)Oc2cncc(C(=O)Nc3ccc(C#N)cc3)c2)cc1` (centres undefined) gave a melting point of 181 to 183 °C.
With `CSC(=CC(=O)c1cncc(F)c1)SC` the melting point was 150 to 152 °C.
With `Cc1nccn1C(=O)c1ccccc1` the melting point was 143 to 144 °C.
`O=c1c(C2=Nc3ccccc3S(=O)(=O)N2)c(O)c2ccccc2n1CC1CCCC1` gave a melting point of 255 to 256 °C.
Work on `CCOC(=O)NCCCC1OCC(c2cccc3ccccc23)CO1` (centres undefined) yielded a melting point of 93 to 94 °C.
`COc1ccc(C2(O)CCCCC2=O)c(OC)c1OC` (centres undefined) showed a melting point of 88 to 91 °C.
Molecule `CC(c1ccccc1N1CCCCC1)C(C(N)=O)c1ccc(C(=O)OCc2ccccc2)cc1` (centres undefined) has a melting point of 126 to 128 °C.
With `CCN(CC)C(=O)c1cc(C(C)(C)C)c(O)c(C(C)(C)C)c1` the melting point was 136 to 138 °C.
With `CNC(=S)NS(=O)(=O)c1cc(CCNC(=O)/C=C/c2cccs2)ccc1OCCc1ccccc1` the melting point was 74 °C.
`CCc1cccc(-c2cnc3[nH]cc(C(=O)C(C)(C)C)c3n2)c1` showed a melting point of 199 to 200 °C.
In the case of `COc1cccc2c1C(=O)N(C)CC(=O)N2`, the melting point is reported as 208 to 210 °C.
With `S=C1CC2Cc3ccc(Cl)cc3C2N1` (centres undefined) the melting point was 225 to 227 °C.
`O=C(Nc1ccccn1)c1nc(-c2ccccc2)c2ccccc2c1O` showed a melting point of 228 to 230 °C.
With `Cc1ccc(N)c(C(=O)c2ccccc2)c1` the melting point was 64 to 66 °C.
Work on `c1ccc(-c2ccc(-c3nc4n(n3)Cc3ccccc3-4)cc2)cc1` yielded a melting point of 231 °C.
With `O=C(Nc1ccc(-n2nc(C(F)(F)F)cc2C2CC2)nc1)c1ccc2[nH]nnc2c1` the melting point was 236 to 238 °C.
Work on `O=C(C=C1NC(c2ccc(F)cc2)=NC1(C(F)(F)F)C(F)(F)F)c1ccc(F)cc1` yielded a melting point of 121 to 123 °C.
In the case of `CCCN(CCC)C1Cn2cnc3cccc(c32)C1C` (centres undefined), the melting point is reported as 78 to 84 °C.
For `Cc1cccc(C=NN2C(=O)CN(C(c3ccccc3)c3ccccc3)CC2=O)n1`, the melting point was 161 to 163 °C.
With `COc1ccc(-c2nc(Sc3nc(-c4ccc(OC)cc4)c(-c4ccc(OC)cc4)[nH]3)[nH]c2-c2ccc(OC)cc2)cc1` the melting point was 244 to 245 °C.
Work on `CCCCCCC(C(=O)O)n1ccc2cc(-c3ccccc3-c3nn[nH]n3)ccc21` (centres undefined) yielded a melting point of 105 to 115 °C.
`Cc1c(C=NO)c2ccccc2n1-c1ccc(OCc2ccccc2)c(F)c1` gave a melting point of 167 to 168 °C.
In the case of `CC(=O)OC1CSC(Oc2cccnc2CN(C)C)C(OC(C)=O)C1OC(C)=O` (centres undefined), the melting point is reported as 105 °C.
In the case of `CC(=O)SCCC(=O)Oc1ccc([N+](=O)[O-])cc1`, the melting point is reported as 71 to 73 °C.
With `CC1(C)OC(=S)Nc2ccc(-c3cccc(Br)c3)cc21` the melting point was 191 to 193 °C.
`CC(C)(C)OC(=O)C(=CC1C(C(=O)O)C1(C)C)OC(C)(C)C` (centres undefined) gave a melting point of 85 °C.
In the case of `Cc1c(Cc2cccnc2)ccc2ccc(Br)cc12`, the melting point is reported as 101 to 104 °C.
`Cn1nc(-c2ccc(O)cc2)ccc1=O` gave a melting point of 242 to 245 °C.
`Cc1ccc(OCCOc2cccc(C)c2)cc1` gave a melting point of 94 °C.
